Assays:
[1] = tested on: wildtype Wnt signaling cascade; test: HEK293 TOP Assay (Super TopFlash luciferase reporter, Wnt-3a stimulated); assay type: cell-based; details: Homo sapiens, HEK293, 16 h
Summary of the method: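 HEK293 cells stably carrying Super TopFlash (TOP) or FOP reporter, stimulated with recombinant human Wnt-3a (2500–5 ng/ml, two-fold steps). Both lines incubated in parallel with compound from 50 μM to 15 nM (3.16-fold) in CAFTY buffer pH 7.4 with 2 mM Ca2+ and 0.01% BSA; selectivity judged TOP vs FOP.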

[2] = biological target: T1, TNKS2 (Homo sapiens, UniProt Q9H2K2); test: Modified TNKS2 Assay 2 (auto-parsylation, [3H]-NAD+ SPA); assay type: biochemical; details: 6 nM TNKS2, 96 well
T1 sequence (Q9H2K2 1-1166): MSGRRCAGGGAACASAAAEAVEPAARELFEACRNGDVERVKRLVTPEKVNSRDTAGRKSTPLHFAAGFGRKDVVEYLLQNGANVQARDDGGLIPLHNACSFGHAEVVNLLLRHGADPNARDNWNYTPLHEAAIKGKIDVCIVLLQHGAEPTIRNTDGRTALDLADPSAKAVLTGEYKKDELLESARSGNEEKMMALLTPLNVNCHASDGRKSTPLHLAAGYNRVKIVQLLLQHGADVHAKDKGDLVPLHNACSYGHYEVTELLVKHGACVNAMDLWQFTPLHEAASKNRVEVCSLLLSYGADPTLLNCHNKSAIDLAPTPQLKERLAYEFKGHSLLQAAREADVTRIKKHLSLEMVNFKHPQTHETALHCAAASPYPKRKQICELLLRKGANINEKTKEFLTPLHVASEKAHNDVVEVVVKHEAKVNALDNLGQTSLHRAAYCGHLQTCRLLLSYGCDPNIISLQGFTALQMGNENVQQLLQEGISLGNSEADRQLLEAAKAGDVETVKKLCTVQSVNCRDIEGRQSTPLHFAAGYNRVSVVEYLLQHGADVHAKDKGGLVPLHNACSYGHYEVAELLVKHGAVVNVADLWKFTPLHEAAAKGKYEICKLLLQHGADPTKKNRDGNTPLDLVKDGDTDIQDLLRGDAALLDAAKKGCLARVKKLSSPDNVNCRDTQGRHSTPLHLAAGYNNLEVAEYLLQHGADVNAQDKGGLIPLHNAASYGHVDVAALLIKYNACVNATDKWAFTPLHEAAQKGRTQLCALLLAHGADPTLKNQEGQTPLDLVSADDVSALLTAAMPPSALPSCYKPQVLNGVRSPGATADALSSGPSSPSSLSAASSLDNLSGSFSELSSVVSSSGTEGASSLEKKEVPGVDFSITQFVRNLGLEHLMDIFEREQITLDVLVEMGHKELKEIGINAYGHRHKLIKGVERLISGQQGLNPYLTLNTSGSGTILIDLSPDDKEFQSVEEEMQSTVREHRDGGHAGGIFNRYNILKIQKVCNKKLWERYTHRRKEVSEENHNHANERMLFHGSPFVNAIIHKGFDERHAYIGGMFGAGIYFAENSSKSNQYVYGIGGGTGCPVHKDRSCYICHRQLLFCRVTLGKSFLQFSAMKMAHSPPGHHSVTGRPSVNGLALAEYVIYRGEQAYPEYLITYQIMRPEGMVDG

[3] = HEK293 TOP reporter cell line, Wnt-3a at EC50, 16 hours incubation, compound dilution series 50 μM to 15 nM
[4] = HEK293 TOP reporter cells, Wnt3a at EC50, 16 hours, luciferase

IC50 [1, 3]	IC50 [2]	IC50 [1, 4]	Structure (SMILES)
15500 nM	> 10000 nM		CNC(=O)c1nc[nH]c1C(=O)Nc1ccc(NC(=O)c2ccccc2OC)cc1 [Example 60, N^5-{4-[(2-methoxybenzoyl)amino]phenyl}-N^4-methyl-1H-imidazole-4,5-dicarboxamide]
1900 nM	1700 nM		O=C(Nc1ccc(NC(=O)c2[nH]cnc2C(=O)NCCc2ccccc2)cc1)c1ccc(F)cc1Cl [Example 384, N^5-{4-[(2-chloro-4-fluorobenzoyl)amino]phenyl}-N^4-(2-phenylethyl)-1H-imidazole-4,5-dicarboxamide]
3930 nM	1900 nM	3920 nM	O=C(Nc1ccc(NC(=O)c2[nH]cnc2C(=O)N2CCOCC2)cc1)c1ccc(F)cc1Cl [Example 29, N-{4-[(2-chloro-4-fluorobenzoyl)amino]phenyl}-5-(morpholin-4-ylcarbonyl)-1H-imidazole-4-carboxamide]
820 nM	700 nM		CNC(=O)c1nc[nH]c1C(=O)Nc1ccc(NC(=O)c2ccccc2Cl)c(F)c1 [Example 80, N^5-{4-[(2-chlorobenzoyl)amino]-3-fluorophenyl}-N^4-methyl-1H-imidazole-4,5-dicarboxamide]
800 nM	540 nM		CNC(=O)c1nc[nH]c1C(=O)Nc1ccc(NC(=O)c2c(F)cc(F)cc2F)cc1 [Example 342, N^4-methyl-N^5-{4-[(2,4,6-trifluorobenzoyl)amino]phenyl}-1H-imidazole-4,5-dicarboxamide]
530 nM	> 10000 nM		O=C(Nc1ccc(NC(=O)c2[nH]cnc2C(=O)NCCC2CC2)cc1)c1ccc(F)cc1Cl [Example 43, N^5-{4-[(2-chloro-4-fluorobenzoyl)amino]phenyl}-N^4-(2-cyclopropylethyl)-1H-imidazole-4,5-dicarboxamide]
950 nM	580 nM		CNC(=O)c1nc[nH]c1C(=O)Nc1ccc(NC(=O)c2ccc(Cl)cc2F)cc1 [Example 333, N^5-{4-[(4-chloro-2-fluorobenzoyl)amino]phenyl}-N^4-methyl-1H-imidazole-4,5-dicarboxamide]
140 nM	50 nM		O=C(Nc1ccc(NC(=O)c2[nH]cnc2C(=O)NC2CC2)cc1)c1cc(F)c(F)cc1Cl [Example 51, N^5-{4-[(2-chloro-4,5-difluorobenzoyl)amino]phenyl}-N^4-cyclopropyl-1H-imidazole-4,5-dicarboxamide]
270 nM	70 nM		CNC(=O)c1nc[nH]c1C(=O)Nc1ccc(NC(=O)c2ccc(S(C)(=O)=O)cc2Cl)cc1 [Example 55, N^5-(4-{[2-chloro-4-(methylsulfonyl)benzoyl]amino}phenyl)-N^4-methyl-1H-imidazole-4,5-dicarboxamide]
2100 nM	6200 nM		CCNC(=O)c1nc[nH]c1C(=O)Nc1ccc(NC(=O)c2cccc(OC)c2Cl)cc1 [Example 260, N^5-{4-[(2-chloro-3-methoxybenzoyl)amino]phenyl}-N^4-ethyl-1H-imidazole-4,5-dicarboxamide]
20 nM	3 nM		C[C@@H]1CCCCN1CCNC(=O)c1[nH]cnc1C(=O)Nc1ccc(NC(=O)c2ccc(F)cc2Cl)cc1 [Example 267, N^4-{4-[(2-chloro-4-fluorobenzoyl)amino]phenyl}-N^5-{2-[(2R)-2-methylpiperidin-1-yl]ethyl}-1H-imidazole-4,5-dicarboxamide]
660 nM	160 nM		CN(C)CCNC(=O)c1nc[nH]c1C(=O)Nc1ccc(NC(=O)c2ccccc2Cl)c(F)c1 [Example 81, N^5-{4-[(2-chlorobenzoyl)amino]-3-fluorophenyl}-N^4-[2-(dimethylamino)ethyl]-1H-imidazole-4,5-dicarboxamide]
2650 nM	> 10000 nM		O=C(Nc1ccc(NC(=O)c2[nH]cnc2C(=O)NCCC2CCCC2)cc1)c1cc(F)c(F)cc1Cl [Example 48, N^5-{4-[(2-chloro-4,5-difluorobenzoyl)amino]phenyl}-N^4-(2-cyclopentylethyl)-1H-imidazole-4,5-dicarboxamide]
1600 nM	480 nM		CCNC(=O)c1nc[nH]c1C(=O)Nc1ccc(NC(=O)c2cc(OC)ccc2Cl)cc1 [Example 264, N^5-{4-[(2-chloro-5-methoxybenzoyl)amino]phenyl}-N^4-ethyl-1H-imidazole-4,5-dicarboxamide]
6150 nM	> 10000 nM	6150 nM	CNC(=O)c1nc[nH]c1C(=O)Nc1ccc(NC(=O)c2c(Cl)cccc2C(F)(F)F)cc1 [Example 36, N^5-(4-{[2-chloro-6-(trifluoromethyl)benzoyl]amino}phenyl)-N^4-methyl-1H-imidazole-4,5-dicarboxamide]
620 nM	260 nM		Cc1cc(NC(=O)c2[nH]cnc2C(=O)NCCN(C)C)ccc1NC(=O)c1ccc(F)cc1Cl [Example 84, N^5-{4-[(2-chloro-4-fluorobenzoyl)amino]-3-methylphenyl}-N^4-[2-(dimethylamino)ethyl]-1H-imidazole-4,5-dicarboxamide]
1700 nM	2200 nM	1700 nM	CCc1ccccc1C(=O)Nc1ccc(NC(=O)c2[nH]cnc2C(=O)NC)cc1 [Example 39, N^5-{4-[(2-ethylbenzoyl)amino]phenyl}-N^4-methyl-1H-imidazole-4,5-dicarboxamide]
710 nM	100 nM		O=C(Nc1ccc(NC(=O)c2[nH]cnc2C(=O)NCCc2cccnc2)cc1)c1ccc(F)cc1Cl [Example 405, N^5-{4-[(2-chloro-4-fluorobenzoyl)amino]phenyl}-N^4-[2-(pyridin-3-yl)ethyl]-1H-imidazole-4,5-dicarboxamide]
610 nM	220 nM		O=C(Nc1ccc(NC(=O)c2[nH]cnc2C(=O)N2CC3(COC3)C2)cc1)c1cc(F)c(F)cc1Cl [Example 52, N-{4-[(2-chloro-4,5-difluorobenzoyl)amino]phenyl}-4-(2-oxa-6-azaspiro[3.3]hept-6-ylcarbonyl)-1H-imidazole-5-carboxamide]
360 nM	500 nM		CCNC(=O)c1nc[nH]c1C(=O)Nc1ccc(NC(=O)c2cnccc2Cl)cc1 [Example 263, N^5-(4-{[(4-chloropyridin-3-yl)carbonyl]amino}phenyl)-N^4-ethyl-1H-imidazole-4,5-dicarboxamide]
100 nM	60 nM		CNC(=O)c1nc[nH]c1C(=O)Nc1ccc(NC(=O)c2ccc(F)cc2I)cc1 [Example 61, N^5-{4-[(4-fluoro-2-iodobenzoyl)amino]phenyl}-N^4-methyl-1H-imidazole-4,5-dicarboxamide]
2300 nM	950 nM		CNC(=O)c1nc[nH]c1C(=O)Nc1ccc(NC(=O)c2ccc(C#N)cc2)cc1 [Example 322, N^5-{4-[(4-cyanobenzoyl)amino]phenyl}-N^4-methyl-1H-imidazole-4,5-dicarboxamide]
860 nM	30 nM		CNC(=O)c1nc[nH]c1C(=O)Nc1ccc(NC(=O)c2ccc(Br)cc2Cl)cc1 [Example 334, N^5-{4-[(4-bromo-2-chlorobenzoyl)amino]phenyl}-N^4-methyl-1H-imidazole-4,5-dicarboxamide]
700 nM	60 nM		O=C(Nc1ccc(NC(=O)c2[nH]cnc2C(=O)NCCc2ccncc2)cc1)c1ccc(F)cc1Cl [Example 394, N^5-{4-[(2-chloro-4-fluorobenzoyl)amino]phenyl}-N^4-[2-(pyridin-4-yl)ethyl]-1H-imidazole-4,5-dicarboxamide]
880 nM	750 nM		CCN(CC)CCCCNC(=O)c1nc[nH]c1C(=O)Nc1ccc(NC(=O)c2ccc(F)cc2Cl)cc1 [Example 393, N^5-{4-[(2-chloro-4-fluorobenzoyl)amino]phenyl}-N^4-[4-(diethylamino)butyl]-1H-imidazole-4,5-dicarboxamide]
